From ChEMBL document CHEMBL1158311, “Fusaricide, a new cytotoxic N-hydroxypyridone from Fusarium sp” (J Nat Prod, 1996)
Converted amounts (≈) assume the structure as drawn.

What was measured:
M109 = test: Antitumor activity against mouse M109 cells; assay type: functional
[1] = Ratio of IC50 for R17 activity to IC50 for HIV1 Rev activity
Penicillium chrysogenum = test: Antifungal activity against Penicillium chrysogenum; assay type: functional
[2] = Inhibition of HIV1 recombinant Rev protein expressed in Escherichia coli binding to HIV1 Rre RNA by liquid scintillation assay; design: species or system Human immunodeficiency virus 1
[3] = Inhibition of R17 coat protein binding to [33P]labeled R17 operator RNA
Candida albicans = test: Antifungal activity against Candida albicans; assay type: functional

- Ratio IC50 [1]: < 2
- MIC (Penicillium chrysogenum): 8 µg/mL (≈ 27.5 µM)
- IC50 [2]: 40 µg/mL
- IC50 [3]: 75 µg/mL (≈ 257 µM)
- MIC (Candida albicans): 16 µg/mL (≈ 54.9 µM)
Structure (SMILES): CC[C@@H]1Oc2ccn(O)c(=O)c2[C@H]2[C@H](C)C[C@H](C)C[C@]12C [FUSARICIDE]
- Activity (M109): 1 µg/mL
